The record followed here is ChEMBL document CHEMBL5726496, “Piperidine derivatives as HDAC1/2 inhibitors” (2017).

One may read the IC50 as the midpoint of a concentration-inhibition curve. A high value points to lower potency.

Chain of Histone deacetylase 1 (Q13547 whole entry): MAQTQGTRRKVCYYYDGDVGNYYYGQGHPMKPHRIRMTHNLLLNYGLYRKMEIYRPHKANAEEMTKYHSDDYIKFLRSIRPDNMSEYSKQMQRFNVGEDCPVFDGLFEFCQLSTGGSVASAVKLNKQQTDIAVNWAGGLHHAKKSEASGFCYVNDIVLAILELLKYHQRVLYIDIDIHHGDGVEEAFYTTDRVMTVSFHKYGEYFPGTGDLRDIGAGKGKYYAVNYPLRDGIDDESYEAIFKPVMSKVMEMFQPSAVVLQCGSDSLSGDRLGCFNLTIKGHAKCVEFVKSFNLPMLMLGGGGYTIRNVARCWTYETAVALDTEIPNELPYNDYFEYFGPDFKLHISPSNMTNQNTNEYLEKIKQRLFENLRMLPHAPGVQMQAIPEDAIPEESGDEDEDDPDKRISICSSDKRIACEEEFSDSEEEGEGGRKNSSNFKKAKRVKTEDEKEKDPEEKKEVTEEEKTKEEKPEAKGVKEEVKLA

This assay concerns the target Histone deacetylase 1 (Homo sapiens, UniProt Q13547). As to the kind of experiment: Enzyme Assay: Compounds for testing were diluted in DMSO to 50 fold the final concentration and a ten point three fold dilution series was made. The compounds were diluted in assay buffer (50 mM HEPES, pH 7.4, 100 mM KCl, 0.001% Tween-20, 0.05% BSA, 20 μM tris(2-carboxyethyl)phosphine) to 6 fold their final concentration. The HDAC enzymes (purchased from BPS Biosciences) were diluted to 1.5 fold their final concentration in assay buffer and pre-incubated with the compounds for 24 hours prior to addition of the substrate.
Turning to `CN(c1ncc(C(=O)Nc2cc(-c3ccccc3)ccc2N)cn1)C1CCN(C(=O)Cc2c[nH]c3ccccc23)CC1`, the IC50 stood at 48 nM. Under `Nc1ccc(-c2ccccc2)cc1NC(=O)c1cnc(NC2CCN(C(=O)Cc3c[nH]c4ccccc34)CC2)nc1` stands 22 nM; under `CC1(Nc2ncc(C(=O)Nc3cc(-c4ccccc4)ccc3N)cn2)CCNCC1`, 14 nM.
